Literature values as cited in patent US6441041B1, “(-)-hydroxycitric acid for the prevention of osteoporosis” (priority 2001, dated 2002).

Legend:
[1] = test system: female Zucker lean (Fa/−) rats; details: lean animals
[2] = test system: female Zucker obese (Fa/fa) rats; details: obese animals

O=C([O-])CC(O)(C(=O)[O-])C(O)C(=O)[O-].[Na+].[Na+].[Na+] (stereo not drawn) [Tri-NaHCA, trisodium (−)-hydroxycitrate]
Carcass protein and ash/mineral content in comparison with control [1]: increased carcass protein and ash/mineral content | Carcass protein and ash/mineral content in comparison with control [2]: increased carcass protein and ash/mineral content
